Results published in patent publication US20160367620A1, “GLUTATHIONE” (priority 2015, published 2016).
Values joined by “and” are separate entries in the source; they are usually repeats but may differ in a detail not shown here. Identical values can stand only once. Like-named read-outs stand apart in the source and are kept apart here.

Key:
[1] = test system: human immunodeficiency virus (HIV) expression; settings: U1 cells; cited from earlier work
[2] = test system: P-selectin; settings: human endothelial cells; cited from earlier work
[3] = test system: Mouse; settings: subcutaneous injection; cited from earlier work
[4] = test system: HIV-1; settings: cited from earlier work; for persistence of anti-HIV-1 effect in culture: single pulse exposure, monocyte/macrophages in vitro
[5] = test system: Mouse; settings: cited from earlier work
[6] = cited from earlier work
[7] = test system: monocyte-macrophages; settings: by conjugation of HNE; cited from earlier work
[8] = test system: HIV; settings: chronically infected cells, exogenous GSH; cited from earlier work
[9] = test system: HIV; settings: 75 mg/kg in two equally divided doses
[10] = test system: Peripheral Blood Mononuclear Cells (PBMC's)
Description: A total of 10,000 glutathione assays were performed.
The Phase I/II data, was based on approximately 10,000 glutathione assays of peripheral blood mononuclear cells (PBMC's) of HIV positive people given the drug regimen.
The study detailed in Appendix B administered the glutathione to HIV infected, otherwise healthy males between 18 and 65, with CD4+ cell counts above 500, not on any other medications.
24 HIV positive people received glutathione in a clinical trial. The first dose of one gram was taken at 0 time, or 10:00 a.m., and the second dose at 3 hours, or 1:00p.m. A baseline was measured two weeks earlier, on the same patient. A temporary intravenous catheter was in place for 7 hours to permit frequent blood sampling at the numerous time points.

[11] = test system: high-affinity component of mitochondrial glutathione transport; settings: stimulated by ATP; cited from earlier work
[12] = test system: mouse neuroblastoma cells; settings: coadministration; cited from earlier work
[13] = test system: hepatocellular carcinoma; settings: 5 g oral per day, two female patients who survived 1 year; cited from earlier work
[14] = human, in vivo, po, 15 mg/kg; cited from earlier work
[15] = test system: NFκB and COX-2; settings: cited from earlier work
[16] = test system: microglial cells; settings: NO and superoxide generated via iNOS and NADPH-oxidase; cited from earlier work
[17] = test system: herpes viruses; settings: cell culture, extracellular glutathione; cited from earlier work
[18] = test system: guinea pigs; settings: ascorbate deficient guinea pigs, 3.75 mmol/kg daily (1,152 mg/kg daily) in three divided doses; cited from earlier work
[19] = test system: RPE cells; settings: GSH supplemented in the medium; cited from earlier work
[20] = i.v. GSH coadministration; cited from earlier work
[21] = test system: Concanavalin A stimulated proliferation of splenocytes; settings: rats, dietary GSH supplementation; cited from earlier work
[22] = human, in vivo, cited from earlier work
[23] = 1,200 mg/day i.v.; cited from earlier work
[24] = test system: glucose-induced insulin secretion; settings: infusion 10 mg/min for 120 min, cited from earlier work
[25] = test system: HIV-1; settings: human macrophages, cited from earlier work
[26] = test system: cytotoxic T-lymphocytes; settings: mouse, injection of GSH on the third day post immunization; cited from earlier work
[27] = test system: human venous endothelial cells and rat aortic smooth muscle cells; settings: cited from earlier work
[28] = rat, plasma; cited from earlier work
[29] = cited from earlier work; remark: listed apart in the source
[30] = test system: Mouse; settings: pretreatment; cited from earlier work
[31] = human, in vivo, iv
Text: The kinetics and the effect of glutathione on plasma and urine sulfhydryls were studied in ten healthy human volunteers.

[32] = test system: human IL-4 production; settings: stimulated peripheral blood T cells, Th0- and Th2-like T cell clones; cited from earlier work
[33] = test system: 8E5 cells; settings: HIV gene expression, low GSH-peroxidase activity; cited from earlier work
[34] = test system: HUVEC and QG90 cell; settings: pretreatment of HUVEC, IL-1 induced; cited from earlier work
[35] = test system: topoisomerase II; settings: cited from earlier work
[36] = test system: murine macrophage J774 cells; settings: exposure to the NO-releasing compound; cited from earlier work
[37] = test system: HIV-1 LTR; settings: Jurkat cells; cited from earlier work
[38] = test system: NFκB; settings: Jurkat cells, various concentrations; cited from earlier work

For glutathione ester [GSE], the “induction of HIV expression mediated by PMA, TNF-α, or IL-6” value [1] is given as “suppressed in a dose-dependent fashion”.
In the case of O=C([O-])c1ccccc1O.[Na+] [sodium salicylate], the “IL-4 induced expression of P-selectin” value [2] is given as “inhibited”.
In the case of CN1CC[C@]23c4c5ccc(O)c4O[C@H]2C(=O)C=C[C@H]3[C@H]1C5 [morphinone], the “toxicity relative to morphine” value [3] is given as 9 times.
For N[C@@H](CCC(=O)N[C@@H](CS)C(=O)NCC(=O)O)C(=O)O [GSH, gamma-glutamyl-cysteinyl-glycine], the “HIV-1 expression in peripheral blood mononuclear cells (PBMC)” value ([4]; in vitro) is given as “blocked or substantially reduced”, the “cellular toxicity in monocyte/macrophages” value ([4]; in vitro) is given as “without producing detectable cellular toxicity” and the “duration of suppression of HIV production” value ([4]; infected monocytes, intracellular glutathione raised to the high end of the normal range) is given as “about 35 days”. The “HIV-1 p24 antigen levels and reverse transcriptase activity” value ([4]; single pulse exposure of HIV-1-infected monocyte/macrophages) was “sustained, concentration-dependent decrease”, the “persistence of anti-HIV-1 effect in culture” value [4] was “at least 35 days” and the “persistence of anti-HIV-1 effect in culture” value ([4]; listed as glutathione) was 35 days. For the same compound, the LD50 ([5]; Intramuscular) was 4000 mg/kg, the LD50 ([5]; Intraperitoneal) was 4020 mg/kg and 6815 mg/kg and the LD50 ([5]; Intravenous) was 2238 mg/kg. The LD50 ([5]; Oral) was 5000 mg/kg, the LD50 ([5]; Subcutaneous) was 5000 mg/kg and the “cytotoxic or cytostatic effects” value [1] was “absence of cytotoxic or cytostatic effects”. The “induction of HIV expression mediated by PMA, TNF-α, or IL-6” value [1] was “suppressed in a dose-dependent fashion”, the benefit ([6]; 3 grams daily for three months, 46 AIDS patients) was “no benefit was conclusively demonstrated” and the adverse effects ([6]; human, in vivo) was “No significant GSH-related adverse effects were reported”. For the same compound, the macrophage death [7] was “protected against macrophage death”, the “virus infectivity, budding and release of virus particles” value [8] was “strongly suppresses” and the “survival after starting on GSH” value ([9]; four far advanced AIDS patients who followed the regimen) was 3 years. The “CD4+ cell counts” value ([9]; four patients) was “did not restore their CD4+ cell counts to any extent”, the intracellular glutathione insufficiency ([10]; PBMC's of HIV positive people) was “correction of the intracellular glutathione insufficiency was evident” and the “dose dependence of PBMC glutathione” value ([10]; in vivo) was “dose response relationship”. For the same compound, the safety ([10]; in vivo) was “no evidence of toxicities”, the “absorption and distribution within the PBMC completed” value ([10]; male, human, in vivo, po) was 60 min and the “share absorbed and intracellular” value ([10]; male, human, in vivo, po) was 80%. For the same compound, the “start of distribution into PBMC's / absorption after oral ingestion” value ([10]; male, human, in vivo, po) was at most 0.5 h, the V max [11] was “approximately 0.5 n mol/min per mg of protein” and the “deleterious effects of methylmercury” value [12] was “largely prevented”. For the same compound, the tumor growth [13] was “regression or stagnation of their tumor growth”, the “rise of plasma glutathione levels over the basal concentration” value [14] was 1.5-10 fold and the “activation of NFκB and COX-2 by H. pylori infection” value [15] was “inhibited”. For the same compound, the peroxynitrite formation [16] was “significantly decreased peroxynitrite formation”, the “reproduction of herpes viruses” value [17] was “inhibited or reduced” and the toxicity [18] was “toxic”. For the same compound, the “growth of RPE cell cultures” value [19] was “thrive”, the “nephrotoxicity of cisplatin and/or cyclophosphamide combination therapy” value [20] was “reduces associated nephrotoxicity” and the “age-associated decline of immune response” value [21] was “reverse age-associated decline of immune response”. For the same compound, the “volume of distribution of exogenous glutathione” value ([22]; iv) was 176-107 MI/Kg, the “plasma concentration of total cyst(e)ine” value [22] was “decreased” and the “hematologic parameters (hematocrit, hemoglobin, blood count) compared to baseline” value [23] was “significantly increase studied hematologic parameters”. The “insulin clearance and action” value [24] was “No effect”, the glucose-induced insulin secretion ([24]; patients with IGT) was “significantly potentiated glucose-induced insulin secretion” and the “production of p24 gag protein and virus infectivity” value ([25]; exogenous GSH) was “strongly suppressed”. For the same compound, the “augmentation of cytotoxic activity” value [26] was 5 fold, the “peroxynitrite induced suppression of mitochondrial respiration, nitrotyrosine formation, protein oxidation, DNA single strand breakage” value [27] was “attenuated” and the “share of the remaining 30% as GSSG” value [28] was 9.5%. The “share of the remaining 30% as the mixed disulfide with cysteine” value [28] was 62.6%, the “systolic and diastolic blood pressure” value ([29]; 1,844 mg i.v. bolus, hypertensive patients and non-hypertensive diabetics) was “rapid and significant decrease in both systolic and diastolic blood pressure” and the blood pressure ([29]; 1,844 mg i.v. bolus, normal healthy subjects) was “no effect”. The “return of blood pressure to baseline” value ([29]; 1,844 mg i.v. bolus) was at most 30 min, the blood pressure values ([29]; 3,699 mg dose, normal subjects) was “significant decrease in the blood pressure values in normal subjects” and the morphine-induced lethality [30] was “protects against morphine-induced lethality”. For the same compound, the half-life [31] was 14.1-9.2 minutes and the “human IL-4 production” value [32] was “decreased in a dose-dependent manner”.
In the case of CCCCCC(/C=C/C=C\C/C=C\C/C=C\CCCC(=O)O)OO (centres unmarked) [Example 15-HPETE, 15-hydroperoxy eicosatetraenoic acid], the “increase in sensitivity of 8E5 cells to killing” value [33] is given as 10 fold.
For CCCCS(=N)(=O)CCC(N)C(=O)O (centres unmarked) [BSO, buthionine sulfoximine], the “HIV yield in the supernatant” value [25] is listed as “significantly increased”.
In the case of CC(=O)CCCCn1c(=O)c2c(ncn2C)n(C)c1=O [pentoxyphillin], the “cell-to-cell attachment of cancer cells to HUVEC” value [34] is given as “efficiently blocked the cell-to-cell attachment in a dose-dependent manner”.
For O=[N+]([O-])c1ccc(SSc2ccc([N+](=O)[O-])cn2)nc1 [2,2′ dithiobis (5-nitropyridine)], the “topoisomerase II-mediated DNA cleavage” value [35] is given as “caused topoisomerase II-mediated DNA cleavage”.
In the case of CC(=O)N[C@H](C(=O)O)C(C)(C)SN=O [SNAP, S-nitroso-N-acetyl penicillamine], the viability of macrophages [36] is given as “diminished”.
In the case of N/C(=N\O)c1cc(O)c(O)c(O)c1 [TD, Trimidox], the “induction of HIV-1 LTR-mediated gene expression by TNF-α and Tat” value [37] is listed as “significantly suppressed” and the “TNF-α-induced NFκB binding” value [38] is listed as “inhibited”.
In the case of CC(=O)Oc1ccccc1C(=O)O [aspirin], the “cell-to-cell attachment of cancer cells to HUVEC” value [34] is listed as “efficiently blocked the cell-to-cell attachment in a dose-dependent manner”.
For CCN1C(=O)C=CC1=O [NEM, N-ethyl maleimide], the “topoisomerase II-mediated DNA cleavage” value [35] is given as “caused topoisomerase II-mediated DNA cleavage”.
